Measured values published in ChEMBL document CHEMBL1149567, “Synthesis and pharmacological evaluation of condensed heterocyclic 6-substituted-1,2,4-triazolo[3,4-b]-1,3,4-thiadiazole derivatives of naproxen” (Bioorg Med Chem Lett, 2007).

What was measured:
Rattus norvegicus [1] = organism: Rattus norvegicus; experiment: Effect on lipid peroxidation in rat gastric mucosa assessed as malondialdehyde level per 100 mg of tissue; assay type: functional, organism-based
Rattus norvegicus [2] = experiment: Toxicity assessed as ulcerogenic activity in po dosed rat; assay type: organism-based; details: in vivo
Rattus norvegicus [3] = experiment: Antiinflammatory activity against carrageenan-induced paw edema in po dosed rat after 4 hrs; assay type: functional
Rattus norvegicus [4] = experiment: Analgesic activity in po dosed rat; assay type: functional
Rattus norvegicus [5] = experiment: Analgesic activity in rat at 30 mg/kg, po; details: read-out: Inhibition
Rattus norvegicus [6] = experiment: Antiinflammatory activity against carrageenan-induced paw edema in rat at 30 mg/kg, po after 4 hrs; details: read-out: Inhibition

| SMILES | Activity (Rattus norvegicus [1]) | UI (Rattus norvegicus [2]) | Inhibition (Rattus norvegicus [3]) | Inhibition (Rattus norvegicus [4]) | inhibition in vivo at 30 mg/kg (Rattus norvegicus [5]) | inhibition in vivo at 30 mg/kg (Rattus norvegicus [6]) |
| --- | --- | --- | --- | --- | --- | --- |
| COc1ccc2cc(C(C)c3nnc4sc(-c5ccc(Cl)cc5)nn34)ccc2c1 (stereo unspecified) | 5.27 nmol | 0.583 | 80.3% | 26.7% |  |  |
| COc1ccc2cc(C(C)c3nnc4sc(Nc5ccccc5)nn34)ccc2c1 (stereo unspecified) |  |  | 43.93% |  |  |  |
| COc1ccc2cc([C@H](C)C(=O)O)ccc2c1 [NAPROXEN] | 9.04 nmol |  |  |  | 73.5% | 81.8% |
| COc1ccc2cc(C(C)c3nnc4sc(-c5ccccc5N)nn34)ccc2c1 (stereo unspecified) |  |  | 54.54% |  |  |  |
| COc1ccc2cc(C(C)c3nnc4sc(Nc5ccc(F)cc5)nn34)ccc2c1 (stereo unspecified) |  |  | 40.14% |  |  |  |
| COc1ccc2cc(C(C)c3nnc4sc(-c5ccccc5)nn34)ccc2c1 (stereo unspecified) | 4.86 nmol | 0.5 | 81.05% | 89.5% |  |  |
| CCCCNc1nn2c(C(C)c3ccc4cc(OC)ccc4c3)nnc2s1 (stereo unspecified) |  |  | 40.9% |  |  |  |
| COc1ccc2cc(C(C)c3nnc4sc(COc5ccc(Cl)cc5Cl)nn34)ccc2c1 (stereo unspecified) | 5.38 nmol | 0.667 | 78.02% | 80.3% |  |  |
| COc1ccc2cc(C(C)c3nnc4sc(-c5ccc(Cl)cc5Cl)nn34)ccc2c1 (stereo unspecified) | 5.63 nmol | 0.75 | 68.93% | 37.2% |  |  |
| COc1ccc2cc(C(C)c3nnc4sc(-c5ccc(N)cc5)nn34)ccc2c1 (stereo unspecified) | 5.85 nmol | 0.833 | 78.02% | 58.1% |  |  |
| COc1ccc2cc(C(C)c3nnc4sc(Nc5ccc(C)cc5C)nn34)ccc2c1 (stereo unspecified) | 6.11 nmol | 0.833 | 76.51% | 33.3% |  |  |
